Reference: PMC6356579, “Mass Spectrometry Analysis and Biological Characterization of the Predatory Ant Odontomachus monticola Venom and Venom Sac Components” (Toxins, 2019)
Like-named read-outs stand apart in the source and are kept apart here. Marks after values point to notes of the source that are not given here. Bridge positions count the residues as written; N and C are the ends. Ends that are not written are not given here. I, II: the chains in the order shown.

How the values were obtained:
[1] = system: E. coli (NBRC 14237); assay type: cell-based, Escherichia coli; conditions: minimum inhibitory concentration; synthetic peptides; method as described previously [6]
Excerpt: (§1) Pilosulin-like peptides 1–6 were chemically synthesized by the 9-fluorenylmethyloxycarbonyl (Fmoc) method, and we examined their biological activities (Table 3). We synthesized homodimeric pilosulin-like peptide 4, which was linked by a single disulfide bond. […] These activities were higher than those of magainin, a well-known Xenopus laevis antimicrobial peptide. […] The cysteine residue of pilosulin-like peptide 4 may be important for antifungal activity.
(§2) Pilosulin-like peptides 1–6 were prepared using Fmoc chemistry by GenScript (Nanjing, Jiangsu, China). The peptides were purified by RP-HPLC with a preparative C18 column. The purity and molecular weight of the final peptides were verified by HPLC and MS. Antimicrobial, hemolytic, and histamine-releasing activities were measured as described previously.

[2] = system: S. aureus (NBRC 12732); assay type: cell-based, Staphylococcus aureus; conditions: minimum inhibitory concentration; synthetic peptides; method as described previously [6]
Excerpt: as §1, §2

[3] = system: S. cerevisiae (NBRC 10217); assay type: cell-based, Saccharomyces cerevisiae; conditions: minimum inhibitory concentration; synthetic peptides; method as described previously [6]
Excerpt: as §1, §2

[4] = Hemolytic activity; assay type: cell-based; conditions: for Hemolytic Activity (%) at 10 μM: peptide at 10 μM; for Hemolytic Activity (%) at 50 μM: peptide at 50 μM
Protocol: as §2

[5] = system: rat mast cells; assay: Histamine-releasing activity; assay type: cell-based; conditions: peptide at 10 μM
Protocol: as §2

[6] = peptide at 10 μM; ref Shigeri et al. [24]; cited from earlier work
Protocol: Table 3 Biological properties of O. monticola pilosulin-like peptides. | column: Hemolytic Activity (%) / at 10 μM

[7] = system: rat mast cells; conditions: peptide at 10 μM; ref Shigeri et al. [24]; cited from earlier work
Protocol: Table 3 Biological properties of O. monticola pilosulin-like peptides. | column: Histamine-Releasing Activity at 10 μM (%)

Substance	MIC, E. coli (NBRC 14237) [1]	MIC, S. aureus (NBRC 12732) [2]	MIC, S. cerevisiae (NBRC 10217) [3]	Hemolytic Activity (%) at 10 μM [4]	Hemolytic Activity (%) at 50 μM [4]	Histamine-Releasing Activity at 10 μM (%) [5]	Histamine-Releasing Activity at 10 μM (%) ([5]; listed as Pilosulin-like peptide 4)	Hemolytic Activity (%) at 10 μM [6]	Histamine-Releasing Activity at 10 μM (%) [7]
GILDWGKKVMDWIKDKM-NH2 [PLP1]	<3.1 µM	<3.1 µM	<50 µM	Negative	Negative				
GWGSIFKTVGKMIAKAAVKAAPEAISAMASQNE [PLP2]	<6.2 µM	<6.2 µM	<50 µM	Negative	10.4%				
I: GVKELFGKAWGLVKKHLPKACGLLGYVKQ-OH / II: GVKELFGKAWGLVKKHLPKACGLLGYVKQ-OH (disulfide I:21-II:21) [PLP4]	<3.1 µM	<3.1 µM	<3.1 µM	Negative	10.5%	66.4%	comparable to that of melittin		
IKGKKIMKNMGKAMKIAGKVAKAMAPIVVPLIVSAA-NH2 [PLP6]	<3.1 µM	<3.1 µM		Negative	Negative				
IWGALLGTLIPAITSAIQ-NH2 [PLP5]	<50 µM			6.9%	94.8%				
KIKWGKIFKKGGKLIGKTALEAAANAAASEAISAMASQNE [PLP3]	<3.1 µM	<25 µM	<50 µM	Negative	Negative				
Magainin [reference compound]	<12.5 µM	<25 µM	Negative						
Mastoparan								13.5 ^b %	31.1 ^b %
Melittin: a honey bee hemolytic peptide								100.0 ^b %	64.3 ^b %
